Measurements: paper PMC6994103 (PLoS Neglected Tropical Diseases, 2020)
Where “and” joins values, the source holds several entries; their conditions need not be identical. Identical values can stand only once.

Key:
Format in all cases: cell-based, Trypanosoma cruzi
[1] = tested on: T. cruzi epimastigotes Y strain; assay: Synergism BZL with LTD-CPH-CFZ in epimastigotes, Y strain (CompuSyn); details: alone
Description: (§1) Parasites´ growth was evaluated at different concentrations of BZL, CV and CV structural analogues, and parasite proliferation was determined after 48 h. […] Growth was determined by counting in a Neubauer chamber and viability assays by using “Cell Titer 96 Aqueous One Solution Cell Proliferation Assay (MTS)” (Promega, Madison, WI, USA) according to the manufacturer’s instructions. Amastigotes were fixed with methanol, stained and mounted with Vectashield with DAPI (Vector Laboratories, Burlingame, CA, USA), and then the non-lysed cells were counted by using fluorescence microscopy. Calculations were performed using CompuSyn software (http://combosyn.com) which is based on the median-effect equation [48] and its extension, the combination index.

[2] = tested on: T. cruzi trypomastigotes Y strain; assay: Synergism BZL with LTD-CPH-CFZ in trypomastigotes, Y strain (CompuSyn)
Description: as §1

[3] = tested on: T. cruzi epimastigotes CL Brener strain; assay: Trypanocidal activity in epimastigotes, CL Brener strain; details: Y vs CL Brener
Description: (§2) VERO cells (5 x10^4 per well) were infected with trypomastigotes (2.5 ×10^5 per well) for 4 h. After this period, the infected cells were washed twice with phosphate-buffered saline (PBS), the MEM medium was replaced, and the cells were kept in culture at 37°C, 5% CO2. In order to obtain intracellular amastigotes, the cells were lysed 4 days after infection using a cell scraper, collected, washed twice with PBS (or MEM) and counted using a hemocytometer. Trypomastigotes were obtained from infected VERO cells as previously described.
Epimastigotes of T. cruzi were cultured as described above, in 24-wells plate at a start density of 0.5 x10^7 cells/mL in BHT medium. Parasites´ growth was evaluated at different concentrations of BZL, CV and CV structural analogues, and parasite proliferation was determined after 48 h. […] Growth was determined by counting in a Neubauer chamber and viability assays by using “Cell Titer 96 Aqueous One Solution Cell Proliferation Assay (MTS)” (Promega, Madison, WI, USA) according to the manufacturer’s instructions. Amastigotes were fixed with methanol, stained and mounted with Vectashield with DAPI (Vector Laboratories, Burlingame, CA, USA), and then the non-lysed cells were counted by using fluorescence microscopy.

[4] = tested on: T. cruzi epimastigotes Dm28c strain; assay: Trypanocidal activity in epimastigotes, Dm28c strain
Description: as §2
Epimastigotes of T. cruzi were cultured as described above, in 24-wells plate at a start density of 0.5 x10^7 cells/mL in BHT medium. Parasites´ growth was evaluated at different concentrations of BZL, CV and CV structural analogues, and parasite proliferation was determined after 48 h. Trypanocidal activity in trypomastigotes and amastigotes was performed using 1 x10^6 cells/mL in 96-well plates and incubating at 37°C for 24 h in the presence of the corresponding drug. Growth was determined by counting in a Neubauer chamber and viability assays by using “Cell Titer 96 Aqueous One Solution Cell Proliferation Assay (MTS)” (Promega, Madison, WI, USA) according to the manufacturer’s instructions. Amastigotes were fixed with methanol, stained and mounted with Vectashield with DAPI (Vector Laboratories, Burlingame, CA, USA), and then the non-lysed cells were counted by using fluorescence microscopy.

O=C(Cn1ccnc1[N+](=O)[O-])NCc1ccccc1 [Benznidazole]
Dose BZL alone ([1]; same effect (Fa 0.881) as BZL 1.00 µM + LTD-CPH-CFZ 42.50 µM): 157.01 ± 24.63 µM
Dose BZL alone ([1]; same effect (Fa 0.909) as BZL 20.00 µM + LTD-CPH-CFZ 17.00 µM): 218.81 ± 31.25 µM
Dose BZL alone ([1]; same effect (Fa 0.933) as BZL 5.00 µM + LTD-CPH-CFZ 42.50 µM): 315.46 ± 41.27 µM
Dose BZL alone ([1]; same effect (Fa 0.951) as BZL 10.00 µM + LTD-CPH-CFZ 42.50 µM): 457.73 ± 30.35 µM
Dose BZL alone ([1]; same effect (Fa 0.981) as BZL 20.00 µM + LTD-CPH-CFZ 42.50 µM): 1370.11 ± 265.72 µM
DRI BZL ([2]; BZL 0.50 µM + LTD-CPH-CFZ 3.00 µM (1/10 IC50)): 3.60 ± 0.06
DRI BZL ([2]; BZL 0.50 µM + LTD-CPH-CFZ 6.00 µM (1/5 IC50)): 9.19 ± 1.16
DRI BZL ([2]; BZL 0.50 µM + LTD-CPH-CFZ 7.50 µM (1/4 IC50)): 22.88 ± 3.02
DRI BZL ([2]; BZL 0.50 µM + LTD-CPH-CFZ 10.00 µM (1/3 IC50)): 94.41 ± 15.96
DRI BZL ([2]; BZL 1.00 µM + LTD-CPH-CFZ 3.00 µM (1/10 IC50)): 5.34 ± 0.30
DRI BZL ([2]; BZL 1.00 µM + LTD-CPH-CFZ 6.00 µM (1/5 IC50)): 12.08 ± 1.16
DRI BZL ([2]; BZL 1.00 µM + LTD-CPH-CFZ 7.50 µM (1/4 IC50), listed as BZL): 27 and 27.38 ± 2.15
DRI BZL ([2]; BZL 1.00 µM + LTD-CPH-CFZ 10.00 µM (1/3 IC50)): 95.04 ± 0.83
DRI BZL ([2]; BZL 5.00 µM + LTD-CPH-CFZ 3.00 µM (1/10 IC50)): 2.88 ± 0.54
DRI BZL ([2]; BZL 5.00 µM + LTD-CPH-CFZ 6.00 µM (1/5 IC50)): 7.17 ± 1.62
DRI BZL ([2]; BZL 5.00 µM + LTD-CPH-CFZ 7.50 µM (1/4 IC50)): 14.85 ± 6.05
DRI BZL ([2]; BZL 5.00 µM + LTD-CPH-CFZ 10.00 µM (1/3 IC50)): 32.44 ± 3.71
DRI BZL ([2]; BZL 10.00 µM + LTD-CPH-CFZ 3.00 µM (1/10 IC50)): 1.46 ± 0.23
DRI BZL ([2]; BZL 10.00 µM + LTD-CPH-CFZ 6.00 µM (1/5 IC50)): 6.02 ± 1.15
DRI BZL ([2]; BZL 10.00 µM + LTD-CPH-CFZ 7.50 µM (1/4 IC50)): 33.28 ± 1.72
DRI BZL ([2]; BZL 10.00 µM + LTD-CPH-CFZ 10.00 µM (1/3 IC50)): 35.17 ± 4.38
Dose BZL alone ([2]; same effect (Fa 0.226) as BZL 0.50 µM + LTD-CPH-CFZ 3.00 µM): 1.80 ± 0.03 µM
Dose BZL alone ([2]; same effect (Fa 0.417) as BZL 0.50 µM + LTD-CPH-CFZ 6.00 µM): 4.60 ± 0.58 µM
Dose BZL alone ([2]; same effect (Fa 0.452) as BZL 1.00 µM + LTD-CPH-CFZ 3.00 µM): 5.34 ± 0.30 µM
Dose BZL alone ([2]; same effect (Fa 0.631) as BZL 0.50 µM + LTD-CPH-CFZ 7.50 µM): 11.44 ± 1.51 µM
Dose BZL alone ([2]; same effect (Fa 0.643) as BZL 1.00 µM + LTD-CPH-CFZ 6.00 µM): 12.08 ± 1.16 µM
Dose BZL alone ([2]; same effect (Fa 0.679) as BZL 5.00 µM + LTD-CPH-CFZ 3.00 µM): 14.42 ± 2.70 µM
Dose BZL alone ([2]; same effect (Fa 0.702) as BZL 10.00 µM + LTD-CPH-CFZ 3.00 µM): 14.56 ± 2.33 µM
Dose BZL alone ([2]; same effect (Fa 0.798) as BZL 1.00 µM + LTD-CPH-CFZ 7.50 µM): 27.38 ± 2.15 µM
Dose BZL alone ([2]; same effect (Fa 0.833) as BZL 5.00 µM + LTD-CPH-CFZ 6.00 µM): 35.83 ± 8.10 µM
Dose BZL alone ([2]; same effect (Fa 0.869) as BZL 0.50 µM + LTD-CPH-CFZ 10.00 µM): 47.21 ± 7.98 µM
Dose BZL alone ([2]; same effect (Fa 0.893) as BZL 10.00 µM + LTD-CPH-CFZ 6.00 µM): 60.21 ± 11.50 µM
Dose BZL alone ([2]; same effect (Fa 0.905) as BZL 5.00 µM + LTD-CPH-CFZ 7.50 µM): 74.24 ± 30.25 µM
Dose BZL alone ([2]; same effect (Fa 0.929) as BZL 1.00 µM + LTD-CPH-CFZ 10.00 µM): 95.04 ± 0.83 µM
Dose BZL alone ([2]; same effect (Fa 0.976) as BZL 5.00 µM + LTD-CPH-CFZ 10.00 µM): 162.18 ± 18.57 µM
Dose BZL alone ([2]; same effect (Fa 0.988) as BZL 10.00 µM + LTD-CPH-CFZ 7.50 µM): 332.83 ± 17.17 µM
Dose BZL alone ([2]; same effect (Fa 0.988) as BZL 10.00 µM + LTD-CPH-CFZ 10.00 µM): 351.76 ± 43.93 µM
fold more sensitive Y vs CL Brener epimastigotes [3]: 1.3 fold
fold more resistant Dm28c vs CL Brener epimastigotes ([4]; Dm28c vs CL Brener): 1.2 fold
fold more sensitive Y vs Dm28c epimastigotes ([4]; Y vs Dm28c): 1.6 fold
